From ChEMBL document CHEMBL1201862, “PubChem BioAssay data set” (2004)
Activity calls are given as the source filed them.

Legend:
[1] = tested on: Streptococcus sp. 'group A'; assay: growth inhibition of control SK(-) GAS strain, dose response, counter-screen for streptokinase expression inhibitor project, luminescence, kanamycin, BacTiterGlo, confirmation (AID 1900); type: functional, organism-based
Streptokinase A = molecular target: T1, Streptokinase A (Streptococcus pyogenes serotype M1, UniProt P10520); assay: S. pyogenes streptokinase expression inhibitors, potency, dose response, plasminogen activation absorbance, OD405 (AID 1914); type: functional, Streptococcus pyogenes M1 GAS;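 also: secreted streptokinase activity via plasminogen activation per viability signal from cell pellet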
T1 sequence (P10520 whole entry): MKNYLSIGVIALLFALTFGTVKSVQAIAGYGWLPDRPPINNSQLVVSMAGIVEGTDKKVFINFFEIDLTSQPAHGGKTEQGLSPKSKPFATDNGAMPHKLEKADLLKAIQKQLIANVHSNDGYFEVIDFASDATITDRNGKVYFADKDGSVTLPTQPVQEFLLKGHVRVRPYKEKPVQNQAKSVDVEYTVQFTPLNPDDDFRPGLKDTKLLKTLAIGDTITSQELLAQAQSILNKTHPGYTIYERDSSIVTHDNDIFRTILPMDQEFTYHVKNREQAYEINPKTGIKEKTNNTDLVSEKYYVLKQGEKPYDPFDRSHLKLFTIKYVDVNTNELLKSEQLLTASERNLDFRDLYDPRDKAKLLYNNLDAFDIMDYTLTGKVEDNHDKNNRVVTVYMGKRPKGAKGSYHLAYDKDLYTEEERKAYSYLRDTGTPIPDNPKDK

[2] = cytotoxicity in HPDE-C7 cells, cell-based, fluorescence, HTS (AID 430); type: functional; conditions: Homo sapiens
[3] = cytotoxicity in KRAS-transformed pancreatic duct cells, primary screen, cell-based, fluorescence, HTS (AID 431); type: functional; conditions: Homo sapiens;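 also: cell line used: HPDE-C7K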
Streptococcus = assay: Group A Streptococcus viability loss, dose response, counter-screen for streptokinase expression inhibitor project, luminescence, BacTiterGlo (AID 1915); type: functional, organism-based;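 also: potency for reduction of bacterial viability or growth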
[4] = molecular target: DNA damage-inducible transcript 3 protein (Mus musculus, UniProt P35639); type: functional, Cricetulus griseus
Beta-galactosidase = Beta-galactosidase (Escherichia coli, UniProt Q8VNN2); assay: Dose response counterscreen for EBI2 assay utilizing the enzyme, b-galactosidase.; type: functional
Bcl-2-related protein A1 = molecular target: T2, Bcl-2-related protein A1 (Mus musculus, UniProt Q07440); type: functional;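 also: confirmatory dose–response counterscreen on Bfl-1, used to check hits from a UBC13 polyubiquitin inhibitor campaign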
T2 sequence (Q07440 whole entry): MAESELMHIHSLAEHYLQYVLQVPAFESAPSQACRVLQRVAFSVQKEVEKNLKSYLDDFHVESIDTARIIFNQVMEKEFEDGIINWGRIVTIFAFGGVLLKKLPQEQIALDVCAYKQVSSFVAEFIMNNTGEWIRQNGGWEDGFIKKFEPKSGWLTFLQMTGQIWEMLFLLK

[5] = molecular target: T3, Ubiquitin-conjugating enzyme E2 N (Homo sapiens, UniProt P61088); type: functional
T3 sequence (P61088 whole entry): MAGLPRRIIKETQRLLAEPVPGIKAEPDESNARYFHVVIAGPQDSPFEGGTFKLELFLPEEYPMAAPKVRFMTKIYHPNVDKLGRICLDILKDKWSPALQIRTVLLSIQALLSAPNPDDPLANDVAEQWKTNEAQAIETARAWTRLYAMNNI

[6] = molecular target: T3, Ubiquitin-conjugating enzyme E2 N; type: functional; remark: listed apart in the source
Ion channel NompC = Ion channel NompC (Danio rerio, UniProt Q7T1G6); assay: Dose response cell-based high-throughput screening assay for agonists of the transient receptor potential channel N1 (TRPN1). [Related pubchem assays (depositor defined):AID1424, AID1448]; type: functional
Mucolipin-3 = molecular target: T4, Mucolipin-3 (Homo sapiens, UniProt Q8TDD5); assay: Fluorescence counterscreen assay for […] agonists: dose response cell-based high-throughput screening assay to identify agonists of the transient receptor potential channel ML3 (TRPML3). [Related pubchem assays: 1424, 1448 ]; type: functional
T4 sequence (Q8TDD5 whole entry): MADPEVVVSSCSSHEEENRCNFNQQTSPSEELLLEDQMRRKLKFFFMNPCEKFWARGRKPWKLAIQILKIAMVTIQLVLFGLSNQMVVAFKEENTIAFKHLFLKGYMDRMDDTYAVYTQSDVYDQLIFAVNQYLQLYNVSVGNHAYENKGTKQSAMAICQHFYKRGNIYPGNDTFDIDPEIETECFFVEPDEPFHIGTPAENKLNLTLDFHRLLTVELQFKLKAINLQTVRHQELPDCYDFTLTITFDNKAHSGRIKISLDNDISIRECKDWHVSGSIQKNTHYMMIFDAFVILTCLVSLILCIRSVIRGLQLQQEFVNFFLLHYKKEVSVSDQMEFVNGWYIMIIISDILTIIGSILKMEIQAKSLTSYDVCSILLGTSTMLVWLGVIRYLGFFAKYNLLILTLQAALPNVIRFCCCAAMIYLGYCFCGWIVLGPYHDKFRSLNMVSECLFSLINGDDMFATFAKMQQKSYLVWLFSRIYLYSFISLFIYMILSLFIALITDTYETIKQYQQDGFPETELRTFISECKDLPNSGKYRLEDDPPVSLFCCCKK

Coagulation factor XII = Coagulation factor XII (Homo sapiens, UniProt P00748); type: functional;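 also: activated factor XIIa alpha cleaving a fluorogenic AMC peptide substrate; inhibitor potency from loss of enzyme activity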
[7] = molecular target: Intestinal-type alkaline phosphatase (Homo sapiens, UniProt P09923); assay: human intestinal alkaline phosphatase activators, dose response, biochemical, luminescence, uHTS hits (AID 463120); type: functional
[8] = molecular target: T5, High affinity choline transporter 1 (Homo sapiens, UniProt Q9GZV3); assay: CHT inhibitors, dose response, cell-based, 5-point CRC, membrane potential dye (AID 504840); type: functional
T5 sequence (Q9GZV3 whole entry): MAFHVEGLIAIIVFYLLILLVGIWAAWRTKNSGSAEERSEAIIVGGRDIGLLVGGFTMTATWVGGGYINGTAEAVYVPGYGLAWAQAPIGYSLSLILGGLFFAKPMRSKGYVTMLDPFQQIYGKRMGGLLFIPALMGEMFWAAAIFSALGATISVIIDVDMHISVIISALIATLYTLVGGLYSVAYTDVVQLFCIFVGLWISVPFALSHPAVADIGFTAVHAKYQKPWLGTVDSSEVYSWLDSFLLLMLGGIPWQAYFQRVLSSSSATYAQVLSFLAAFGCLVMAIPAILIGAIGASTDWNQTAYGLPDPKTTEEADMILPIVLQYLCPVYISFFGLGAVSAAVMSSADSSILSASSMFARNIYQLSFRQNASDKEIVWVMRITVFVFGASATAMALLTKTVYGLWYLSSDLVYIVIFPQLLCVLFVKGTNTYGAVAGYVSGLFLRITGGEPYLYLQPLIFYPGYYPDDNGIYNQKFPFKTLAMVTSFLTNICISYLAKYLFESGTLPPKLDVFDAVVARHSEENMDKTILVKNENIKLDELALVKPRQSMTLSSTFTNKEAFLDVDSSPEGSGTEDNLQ

[9] = molecular target: T6, G-protein coupled receptor 35 (Homo sapiens, UniProt Q9HC97); assay: SAR analysis of Agonists of the GPR35 Receptor using an Image-Based Assay - Set 4. [Related pubchem assays (depositor defined):AID2013, AID2026]; type: functional
Cannabinoid receptor 1 [10] = molecular target: T7, Cannabinoid receptor 1 (Homo sapiens, UniProt P21554); assay: SAR analysis of agonists of the Cannabinoid Receptor 1 using an Image-Based Assay - Set 4. [Related pubchem assays (depositor defined):AID2013, AID2026]; type: functional
[11] = molecular target: T6, G-protein coupled receptor 35; assay: SAR analysis of Antagonists of the GPR35 Receptor using an Image-Based Assay - Set 6. [Related pubchem assays (depositor defined):AID2013, AID2026]; type: functional
Cannabinoid receptor 1 [12] = molecular target: T7, Cannabinoid receptor 1; assay: SAR analysis of antagonists of the Cannabinoid Receptor 1 using an Image-Based Assay - Set 4. [Related pubchem assays (depositor defined):AID2013, AID2026]; type: functional
[13] = molecular target: G-protein coupled receptor 55 (Homo sapiens, UniProt Q9Y2T6); assay: SAR Analysis of Selective Antagonists of GPR55 using an Image-Based Assay - Set 4. [Related pubchem assays (depositor defined):AID2013, AID2026]; type: functional;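 also: antagonism of response to 5 µM lysophosphatidylinositol agonist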
Cannabinoid receptor 2 [14] = molecular target: T8, Cannabinoid receptor 2 (Homo sapiens, UniProt P34972); assay: SAR analysis of antagonists of the Cannabinoid Receptor 2 using an Image-Based Assay - Set 3. [Related pubchem assays (depositor defined):AID2013, AID2026]; type: functional
Cannabinoid receptor 2 [15] = molecular target: T8, Cannabinoid receptor 2; assay: SAR analysis of agonists of the Cannabinoid Receptor 2 using an Image-Based Assay - Set 3. [Related pubchem assays (depositor defined):AID2013, AID2026]; type: functional
Aminopeptidase N = molecular target: T9, Aminopeptidase N (Plasmodium falciparum FcB1/Columbia, UniProt O96935); assay: P. falciparum M1AAP inhibitors, biochemical, fluorogenic H-Leu-NHMec substrate, 1536-well (AID 1445); parameters: species or system Plasmodium falciparum 3D7, 3D7
T9 sequence (O96935 whole entry): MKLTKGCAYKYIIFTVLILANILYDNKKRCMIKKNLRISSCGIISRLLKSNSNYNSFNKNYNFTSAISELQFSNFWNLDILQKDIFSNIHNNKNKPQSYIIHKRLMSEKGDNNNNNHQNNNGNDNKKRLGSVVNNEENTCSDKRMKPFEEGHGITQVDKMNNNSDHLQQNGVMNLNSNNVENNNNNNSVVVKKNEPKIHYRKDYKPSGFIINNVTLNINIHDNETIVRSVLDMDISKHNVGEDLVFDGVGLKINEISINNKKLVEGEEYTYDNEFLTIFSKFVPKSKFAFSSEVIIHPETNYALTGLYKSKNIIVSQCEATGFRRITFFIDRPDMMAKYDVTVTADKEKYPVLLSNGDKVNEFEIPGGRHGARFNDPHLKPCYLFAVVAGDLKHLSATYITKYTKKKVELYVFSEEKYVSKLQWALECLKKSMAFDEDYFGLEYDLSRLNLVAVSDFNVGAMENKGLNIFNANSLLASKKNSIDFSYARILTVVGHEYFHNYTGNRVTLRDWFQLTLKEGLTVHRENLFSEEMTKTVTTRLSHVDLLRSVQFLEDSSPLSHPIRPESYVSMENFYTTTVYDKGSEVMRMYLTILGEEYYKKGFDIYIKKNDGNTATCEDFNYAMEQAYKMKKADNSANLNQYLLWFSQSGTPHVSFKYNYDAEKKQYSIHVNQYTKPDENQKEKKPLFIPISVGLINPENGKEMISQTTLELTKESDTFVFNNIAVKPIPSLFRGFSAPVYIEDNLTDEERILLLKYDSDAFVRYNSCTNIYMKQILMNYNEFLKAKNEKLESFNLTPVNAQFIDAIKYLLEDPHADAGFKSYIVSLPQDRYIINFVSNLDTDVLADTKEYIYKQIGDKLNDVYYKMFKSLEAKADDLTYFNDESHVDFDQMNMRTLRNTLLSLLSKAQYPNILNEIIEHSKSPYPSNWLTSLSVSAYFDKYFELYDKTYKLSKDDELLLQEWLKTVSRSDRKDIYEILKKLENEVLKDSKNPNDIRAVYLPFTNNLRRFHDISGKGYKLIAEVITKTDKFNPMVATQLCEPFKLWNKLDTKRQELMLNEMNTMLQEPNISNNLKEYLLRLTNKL

[16] = molecular target: T10, Runt-related transcription factor 1/Core-binding factor subunit beta (Homo sapiens, UniProt Q01196+Q13951); assay: inhibitors of RUNX1 Runt–CBFb-SMMHC binding, primary screen, biochemical, FRET, Cerulean-Runt, Venus-CBFb-SMMHC, uHTS (AID 1434); type: protein assay;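 also: partner is the CBFb-SMMHC leukemia fusion protein rather than wild-type CBFb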
[17] = molecular target: T10, Runt-related transcription factor 1/Core-binding factor subunit beta; assay: inhibitors of RUNX1 Runt–CBFb-SMMHC binding, biochemical, TR-FRET (AID 1438); type: protein assay
[18] = molecular target: Protein phosphatase methylesterase 1 (Homo sapiens, UniProt Q9Y570); assay: PME-1 inhibitors by competitive ABPP, late-stage follow-up, gel-based ABPP, IC50, set 1 (AID 463130); type: functional
Fatty acid synthase [19] = molecular target: T11, Fatty acid synthase (Homo sapiens, UniProt P49327); assay: FAS thioesterase domain inhibitors, dose response, biochemical, endpoint fluorescence intensity, uHTS hits (AID 624327); type: functional;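 also: fluorescence from hydrolysis of an O-methyl fluorescein acyl ester substrate by the enzyme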
Fatty acid synthase [20] = molecular target: T11, Fatty acid synthase; assay: FAS thioesterase domain inhibitors, dose response, biochemical, kinetic fluorescence intensity (AID 624326); type: functional;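 also: rate of fluorescence rise from hydrolysis of a fluorogenic O-methyl fluorescein ester substrate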

T11 sequence (P49327 whole entry, the tested form may be a part): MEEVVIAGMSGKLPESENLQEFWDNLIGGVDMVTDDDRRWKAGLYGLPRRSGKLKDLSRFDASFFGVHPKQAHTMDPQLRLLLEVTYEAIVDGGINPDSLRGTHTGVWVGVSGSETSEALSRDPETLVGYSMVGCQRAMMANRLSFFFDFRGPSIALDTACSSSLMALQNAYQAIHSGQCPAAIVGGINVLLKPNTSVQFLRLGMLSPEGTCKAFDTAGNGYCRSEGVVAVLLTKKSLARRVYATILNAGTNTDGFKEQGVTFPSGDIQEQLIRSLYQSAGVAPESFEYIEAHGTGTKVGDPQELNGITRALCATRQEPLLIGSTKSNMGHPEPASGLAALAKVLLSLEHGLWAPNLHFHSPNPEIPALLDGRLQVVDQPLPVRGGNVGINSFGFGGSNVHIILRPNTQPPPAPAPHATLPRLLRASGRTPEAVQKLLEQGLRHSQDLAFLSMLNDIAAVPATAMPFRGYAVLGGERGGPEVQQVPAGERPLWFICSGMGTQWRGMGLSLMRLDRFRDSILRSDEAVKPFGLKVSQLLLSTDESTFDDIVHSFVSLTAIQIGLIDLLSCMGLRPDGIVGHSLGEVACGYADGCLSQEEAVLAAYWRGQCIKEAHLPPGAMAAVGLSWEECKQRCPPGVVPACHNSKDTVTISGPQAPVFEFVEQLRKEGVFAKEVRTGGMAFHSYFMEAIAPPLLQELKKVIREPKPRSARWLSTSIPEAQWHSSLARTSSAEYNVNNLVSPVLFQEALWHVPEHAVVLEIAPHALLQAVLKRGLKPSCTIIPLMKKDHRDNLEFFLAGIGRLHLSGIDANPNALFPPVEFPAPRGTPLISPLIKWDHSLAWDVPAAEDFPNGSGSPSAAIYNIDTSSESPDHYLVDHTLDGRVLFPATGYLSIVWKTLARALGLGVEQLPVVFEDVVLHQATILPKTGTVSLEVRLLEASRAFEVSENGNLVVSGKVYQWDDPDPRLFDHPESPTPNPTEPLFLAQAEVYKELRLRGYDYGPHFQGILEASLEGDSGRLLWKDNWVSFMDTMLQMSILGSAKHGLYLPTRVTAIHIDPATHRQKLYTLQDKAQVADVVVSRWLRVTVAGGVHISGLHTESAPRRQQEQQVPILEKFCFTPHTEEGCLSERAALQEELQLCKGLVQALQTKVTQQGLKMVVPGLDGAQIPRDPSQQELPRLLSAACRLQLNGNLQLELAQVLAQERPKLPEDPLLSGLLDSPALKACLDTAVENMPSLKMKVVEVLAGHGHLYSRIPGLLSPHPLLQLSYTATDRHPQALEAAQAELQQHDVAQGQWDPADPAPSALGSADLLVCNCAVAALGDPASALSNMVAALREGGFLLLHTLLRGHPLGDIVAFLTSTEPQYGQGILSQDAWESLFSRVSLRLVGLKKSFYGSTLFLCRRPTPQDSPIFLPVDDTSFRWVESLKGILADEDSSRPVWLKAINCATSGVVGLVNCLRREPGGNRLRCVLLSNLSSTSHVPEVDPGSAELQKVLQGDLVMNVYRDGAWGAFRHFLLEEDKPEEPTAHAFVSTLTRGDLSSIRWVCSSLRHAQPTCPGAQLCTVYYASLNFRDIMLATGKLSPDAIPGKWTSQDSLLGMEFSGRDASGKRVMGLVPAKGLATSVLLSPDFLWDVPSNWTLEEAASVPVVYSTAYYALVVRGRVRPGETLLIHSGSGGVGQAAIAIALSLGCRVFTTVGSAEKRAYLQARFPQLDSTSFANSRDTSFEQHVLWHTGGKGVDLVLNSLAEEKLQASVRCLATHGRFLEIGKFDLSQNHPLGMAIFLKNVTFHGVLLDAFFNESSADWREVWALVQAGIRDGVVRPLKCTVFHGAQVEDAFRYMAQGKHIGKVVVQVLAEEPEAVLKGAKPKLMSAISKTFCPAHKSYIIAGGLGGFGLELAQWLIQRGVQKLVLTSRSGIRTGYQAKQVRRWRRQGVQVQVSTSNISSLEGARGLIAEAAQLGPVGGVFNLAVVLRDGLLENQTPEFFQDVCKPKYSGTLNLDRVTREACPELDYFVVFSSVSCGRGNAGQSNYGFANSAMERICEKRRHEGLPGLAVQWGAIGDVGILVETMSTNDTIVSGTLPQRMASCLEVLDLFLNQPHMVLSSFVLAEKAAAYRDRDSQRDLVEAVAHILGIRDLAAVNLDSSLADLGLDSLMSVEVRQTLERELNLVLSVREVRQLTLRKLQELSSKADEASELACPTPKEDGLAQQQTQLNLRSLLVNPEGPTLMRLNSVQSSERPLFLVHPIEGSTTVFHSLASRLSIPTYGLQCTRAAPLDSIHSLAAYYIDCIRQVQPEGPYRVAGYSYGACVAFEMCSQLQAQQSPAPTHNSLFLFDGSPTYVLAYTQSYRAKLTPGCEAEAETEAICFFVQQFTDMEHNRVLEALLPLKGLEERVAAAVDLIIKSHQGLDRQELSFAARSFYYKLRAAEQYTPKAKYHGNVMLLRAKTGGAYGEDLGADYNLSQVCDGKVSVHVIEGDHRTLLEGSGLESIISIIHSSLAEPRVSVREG
T10 sequence (Q01196 whole entry, the tested form may be a part): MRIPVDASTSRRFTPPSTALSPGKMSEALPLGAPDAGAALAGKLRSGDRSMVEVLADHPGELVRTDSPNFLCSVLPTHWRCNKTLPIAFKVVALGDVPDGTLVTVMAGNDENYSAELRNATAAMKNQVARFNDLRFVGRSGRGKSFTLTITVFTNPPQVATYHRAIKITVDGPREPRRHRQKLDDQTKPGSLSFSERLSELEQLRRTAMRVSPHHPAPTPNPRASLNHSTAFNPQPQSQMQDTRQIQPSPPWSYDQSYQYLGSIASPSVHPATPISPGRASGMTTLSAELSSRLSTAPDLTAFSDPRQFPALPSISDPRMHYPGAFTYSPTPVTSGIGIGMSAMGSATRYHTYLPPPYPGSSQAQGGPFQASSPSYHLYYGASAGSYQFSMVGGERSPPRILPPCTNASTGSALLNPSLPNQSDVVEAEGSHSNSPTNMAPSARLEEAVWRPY
T10 sequence (Q13951 whole entry, the tested form may be a part): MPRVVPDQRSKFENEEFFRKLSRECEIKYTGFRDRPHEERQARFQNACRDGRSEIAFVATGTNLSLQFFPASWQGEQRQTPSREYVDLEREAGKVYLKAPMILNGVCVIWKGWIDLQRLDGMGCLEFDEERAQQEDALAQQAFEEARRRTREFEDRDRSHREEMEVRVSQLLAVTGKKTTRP
T7 sequence (P21554 whole entry): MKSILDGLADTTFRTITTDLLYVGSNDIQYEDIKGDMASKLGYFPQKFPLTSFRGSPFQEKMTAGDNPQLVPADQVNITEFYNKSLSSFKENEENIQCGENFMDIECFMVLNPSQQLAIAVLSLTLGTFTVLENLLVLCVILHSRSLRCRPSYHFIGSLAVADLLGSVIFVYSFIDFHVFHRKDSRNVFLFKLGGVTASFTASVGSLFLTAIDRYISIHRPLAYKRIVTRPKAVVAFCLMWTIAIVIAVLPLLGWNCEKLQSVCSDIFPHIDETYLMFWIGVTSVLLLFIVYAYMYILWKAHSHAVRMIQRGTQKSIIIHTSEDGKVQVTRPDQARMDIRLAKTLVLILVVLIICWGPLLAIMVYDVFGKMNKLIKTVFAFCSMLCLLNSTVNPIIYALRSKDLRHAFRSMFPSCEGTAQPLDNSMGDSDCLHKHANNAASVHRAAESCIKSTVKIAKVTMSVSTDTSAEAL
T8 sequence (P34972 whole entry): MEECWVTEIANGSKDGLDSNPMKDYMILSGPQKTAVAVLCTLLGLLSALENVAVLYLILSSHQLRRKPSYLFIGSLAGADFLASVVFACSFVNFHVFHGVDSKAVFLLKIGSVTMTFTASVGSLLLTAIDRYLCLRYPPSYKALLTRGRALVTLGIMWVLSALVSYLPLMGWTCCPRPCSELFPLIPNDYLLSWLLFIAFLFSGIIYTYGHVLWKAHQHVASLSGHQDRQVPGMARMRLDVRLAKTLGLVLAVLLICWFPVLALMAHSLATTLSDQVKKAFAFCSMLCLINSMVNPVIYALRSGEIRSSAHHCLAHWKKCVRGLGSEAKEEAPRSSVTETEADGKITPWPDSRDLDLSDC
T6 sequence (Q9HC97 whole entry): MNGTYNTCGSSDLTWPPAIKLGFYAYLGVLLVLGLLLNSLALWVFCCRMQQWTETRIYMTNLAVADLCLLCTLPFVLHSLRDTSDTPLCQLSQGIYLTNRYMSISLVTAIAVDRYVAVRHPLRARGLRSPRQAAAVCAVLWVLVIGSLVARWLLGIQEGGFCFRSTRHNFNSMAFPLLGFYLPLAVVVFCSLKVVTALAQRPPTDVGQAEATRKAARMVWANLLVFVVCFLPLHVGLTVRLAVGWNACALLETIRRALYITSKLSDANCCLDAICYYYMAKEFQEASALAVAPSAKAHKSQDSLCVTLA
Chain of Protein phosphatase methylesterase 1 (Q9Y570 whole entry, the tested form may be a part): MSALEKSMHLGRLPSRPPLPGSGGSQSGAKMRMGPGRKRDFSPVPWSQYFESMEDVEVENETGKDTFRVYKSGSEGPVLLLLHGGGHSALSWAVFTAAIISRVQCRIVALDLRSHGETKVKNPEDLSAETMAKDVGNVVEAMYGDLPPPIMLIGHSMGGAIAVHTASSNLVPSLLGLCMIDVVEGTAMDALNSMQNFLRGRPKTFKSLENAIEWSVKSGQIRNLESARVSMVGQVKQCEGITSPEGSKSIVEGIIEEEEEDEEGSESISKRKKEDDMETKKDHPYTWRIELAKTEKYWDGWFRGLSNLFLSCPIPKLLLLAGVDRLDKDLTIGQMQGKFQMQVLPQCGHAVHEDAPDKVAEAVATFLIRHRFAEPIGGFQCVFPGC
Chain of G-protein coupled receptor 55 (Q9Y2T6 whole entry): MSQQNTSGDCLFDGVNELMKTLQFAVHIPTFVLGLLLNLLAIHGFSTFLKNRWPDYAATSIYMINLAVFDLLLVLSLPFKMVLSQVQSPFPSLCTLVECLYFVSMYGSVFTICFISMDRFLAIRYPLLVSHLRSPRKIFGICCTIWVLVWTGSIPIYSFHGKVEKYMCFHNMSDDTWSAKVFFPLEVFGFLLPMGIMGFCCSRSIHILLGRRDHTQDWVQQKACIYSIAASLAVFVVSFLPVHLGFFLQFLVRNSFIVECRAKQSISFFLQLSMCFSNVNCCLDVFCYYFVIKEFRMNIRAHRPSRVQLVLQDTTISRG

With `Nc1c(S(=O)(=O)c2ccccc2)c2nc3ccccc3nc2n1/N=C/c1cccc(O)c1` the EC50 [1] was 7.72 µM (active), the EC50 (Streptokinase A) was 23.6 µM (active) and the EC50 [2] was 2.92 µM (active). The EC50 [3] was 2.83 µM (active), the EC50 (Streptococcus) was 75.4 µM (active) and the “Absolute IC50 (CHOP)” value [4] was 10 µM. The IC50 (Beta-galactosidase) was > 80 µM (inactive).
In the case of `Cc1ccc(C(=O)NC(C)c2ccc(-n3ccnc3)cc2)cc1S(=O)(=O)N1CCOCC1` (stereo not drawn), the IC50 (Bcl-2-related protein A1) was > 20 µM (inactive), the IC50 [5] was 17.3 µM (active) and the IC50 [6] was 11.5 µM (active).
In the case of `CCN1C(=O)/C(=C/c2ccc(N3CCCC3)cc2)NC1=S`, the EC50 (Ion channel NompC) was 1.28 µM (active) and the EC50 (Mucolipin-3) was 2.43 µM (active).
With `COC(=O)c1ccc(C(C(=O)NC2CCCCC2)N(CCN2CCOCC2)C(=O)Cc2cccs2)cc1` (stereo not drawn) the IC50 (Coagulation factor XII) was > 50 µM (inactive).
For `OC1CN=C2Sc3ccccc3N2C1` (stereo not drawn), the EC50 [7] was > 100 µM (inactive) and the IC50 [8] was 15.1 µM (active).
In the case of `Cc1ccc(-n2cc3c(-c4ccccc4)nnc(C)c3n2)cc1`, the EC50 [9] was > 32 µM (inactive), the EC50 (Cannabinoid receptor 1 [10]) was > 32 µM (inactive) and the IC50 [11] was > 32 µM (inactive). For the same compound, the IC50 (Cannabinoid receptor 1 [12]) was 8.66 µM (active), the IC50 [13] was 6.89 µM (active) and the IC50 (Cannabinoid receptor 2 [14]) was > 32 µM (inactive). For the same compound, the EC50 (Cannabinoid receptor 2 [15]) was > 32 µM (inactive).
In the case of `CC1=CC(c2ccc(Cl)cc2)N2NC(NS(=O)(=O)c3ccc(C)cc3)=NC2=N1` (stereo not drawn), the IC50 (Aminopeptidase N) was 104 µM (active), the IC50 [16] was 23.6 µM (active) and the IC50 [17] was 31.5 µM (active).
For `COC(=O)N1C(=O)[C@](c2ccc(OC)cc2)(C(C)C)N1C(=O)OC`, the IC50 [18] was 0.069 µM (active), the IC50 (Fatty acid synthase [19]) was 3.86 µM (active) and the IC50 (Fatty acid synthase [20]) was 2.06 µM (active).
